# According to patent US9382256B2, “Formulation of Syk inhibitors” (Gilead Connecticut, Inc., priority 2013, dated 2016):
# Structures can show the parent of a compound that is named as a salt.
# Tests used:
# [1] = Physical stability of dry granulation formulation during processing and storage (XRPD); format: physicochemical; conditions: intragranular blend, milled granules, final blend (FIG. 4)
# [2] = Intrinsic dissolution rate, rotating disk apparatus; format: physicochemical; conditions: 100 rpm, 37±0.5° C., 500 mL
# Procedure: Intrinsic dissolution measurements were conducted using a rotating disk apparatus. Disks of Compound 1, Compound 2 and Compound 3 were separately prepared by directly compressing 100 mg of a powder of the respectively compounds in a die at a pressure of 2500 psi for 2 minutes using a hydraulic press (Carver Press, Fred Carver, NJ, USA). The exposed surface area for the resulting disks was 0.5 cm^2. A USP dissolution apparatus maintained at 37±0.5° C. was used for the dissolution study. Each dissolution vessel contained 500 mL of aqueous dissolution medium of 0.05 N HCl or pH 6.8 20 mM phosphate buffer with 1% cetyltrimetrylammonium bromide (CTAB). The disk holder (die) was half-immersed into the dissolution medium and rotated at 100 rpm. Samples were withdrawn at specified time intervals and the amount of compound dissolved was determined by HPLC.
# The amount of compound dissolved at each time point was plotted versus time and the observed dissolution rate (mg/min) was obtained from the slope of the plot. The observed dissolution rate was divided by the surface area of the compound disk (0.5 cm^2) to obtain the intrinsic dissolution rate.
compound,measurement,setting,value
c1cn2cc(-c3ccc4cn[nH]c4c3)nc(Nc3ccc(N4CCOCC4)cc3)c2n1 [bis-mesylate salt of Formula IA],form change by XRPD during processing,[1],no form change was observed
c1cn2cc(-c3ccc4cn[nH]c4c3)nc(Nc3ccc(N4CCOCC4)cc3)c2n1 [Compound 1],Intrinsic dissolution rate in pH 1.3 0.05N HCl with 0.9% NaCl,[2],0.00046 mg/min/cm^2
